Type in all cases: cell-based, human
Experiment [1] concerns PrSC cells. Kind of experiment: Losartan: proliferation of PrSC cells in 10% FCS (Example 8). The note with it: 5 days. How it is done: PrSC cells were plated out on a 12-well dish at 20,000 cells per well, and cultured for 5 days in a phenol red-free F12 culture medium containing 10% (V/V) FCS and losartan at various concentrations (0, 0.1, 1.0, and 10 μM). Then the number of cells was counted. The group with no additive was used as the control group. Each group contained four wells (n=4).

The test system of experiment [2] is PrSC cells. Kind of experiment: Losartan: proliferation of TNFα-stimulated PrSC cells (Example 9). Conditions: 5 days. As for the experimental part:
PrSC cells were plated out on a 12-well dish at 25,000 cells per well, and cultured for 5 days in a phenol red-free F12 culture medium supplemented with 0.1% (W/V) BSA containing TNFα (1 ng/mL) and/or losartan (10 μM). Then the number of cells was counted. The group with no additive was used as the control group. Each group contained four wells (n=4).

Experiment [3] relates to MAPK phosphorylation in PC-3 cells. Kind of experiment: MAPK phosphorylation in PC-3 cells cultured in PrSC conditioned media (Western blotting). How it is done: Stromal cells (PrSC) were cultured in a phenol red-free F12 medium containing 0.1% (W/V) BSA, to which angiotensin II (10 μM) was added alone or in combination with losartan (“Los”; 10 μM). The culture medium was collected 24 hours after the addition, and used as a conditioned medium (“0.1% BSA-CM”).
Stromal cells (PrSC) were cultured in a phenol red-free F12 medium containing 10% (V/V) FCS, to which CV (10 μM) or losartan (10 μM) was added. The culture medium was collected 24 hours after the addition, and used as a conditioned medium (“10% FCS-CM”) with no addition of angiotensin II. 10% FCS-CM with no additive was also prepared in the same manner.
3,000,000 PrSC cells were used for each of the above 10-1 and 10-2
PC3 cells (prostate cancer cells) were cultured for 24 hours in a phenol red-free F12 medium supplemented with 0.1% (W/V) BSA. Then the medium was replaced with one of the conditioned media prepared as described above, and the cells were collected 10 minutes later. Total cellular proteins were extracted as described below. Similar protocol was done in parallel for PC-3 cells without using any conditioned medium (“Control”).
The cells were washed twice with an ice-cold phosphate buffer (PBS), and lysed in 200 μL of an ice-cold cell lysis solution (lysis buffer; 20 mM of Tris (pH8.0), 137 mM of NaCl, 10% of glycerol, 0.1% of SDS, 0.5% of Nonidet P-40 (trade name), 100 mM of sodium fluoride, […] of sodium orthovanadate, 1 mM of EGTA, 2 mM of phenylmethylsulfonyl fluoride, […] of leupeptin, and […] of aprotinin). The mixture was centrifuged. Subsequently, the supernatant was collected.
The resulting protein sample was subjected to SDS-PAGE in the routine manner, and the MAPK phosphorylation was determined by Western blotting using an anti-phospho-MAP kinase antibody or an anti-MAP kinase antibody) (both were purchased from Cell Signaling Technology (Beverly, Mass.)) as the detecting antibody.
From the obtained results, the expression levels of pMAPK and MAPK bands were determined using NIH image software. On the basis of the results, the pMAPK/MAPK ratio in each lane was calculated, and then the ratio (“pMAPK ratio”) of the obtained value of each lane to that of the lane 1 (“Control”) was calculated by taking the value of Control as 1.
In general terms: Immunoblotting shows a protein as a band on a membrane.

The test system of experiment [4] is MAPK phosphorylation in PrSC cells. Description: MAPK phosphorylation in PrSC cells (Western blotting). As for the experimental part: Stromal cells (PrSC) were cultured for 24 hours in a phenol red-free F12 medium containing 0.1% (W/V) BSA, to which angiotensin II (10 μM) or TNFα (1 ng/mL) was added each alone or in combination with either CV (10 μM) or losartan (“Los”; 10 μM) by replacing the medium. The cells were collected 10 minutes after the addition, and the total cellular proteins were extracted in the same manner as described in Example 10. Similarly, the cells cultured with no additive and the cells added with either CV or Los alone were processed in parallel. 3,000,000 PrSC cells were used for each sample.
These samples were subjected to Western blotting in the same manner as described in Example 10.

Experiment [5] has as its system PrSC cells. Description: Telmisartan: proliferation of EGF- or TNFα-stimulated PrSC cells (Example 7). Conditions: 5 days, P<0.01. How it is done: PrSC cells were plated out on a 12-well dish at 25,000 cells per well, and cultured for 5 days in a phenol red-free F12 culture medium supplemented with 0.1% (W/V) BSA containing EGF (10 ng/mL) or TNFα (1 ng/mL), each alone or in combination with telmisartan (50 μM). Then the number of cells was counted. The group with no additive was used as the control group. Each group contained four wells (n=4).

For experiment [6], the system named is PrSC cells. Description: Proliferation of PrSC cells stimulated with angiotensin II, TGFβ or EGF (cell count, Examples 1-3). The note with it: 5 days. As for the experimental part:
A Cell Line Derived from Normal Human Prostatic stromal cells, i.e., PrSC cells, was purchased from Sanko Junyaku Co. Ltd. (Normal Human Prostate Stromal Cells, catalogue number CC-2508), and maintained by subculturing them in a phenol red-free RPMI medium under conditions of 5% CO2 and 37° C.
The PrSC cells (10^4 cells) were placed in a 12-well dish, and cultured in a phenol red-free medium containing 0.1% (W/V) BSA under conditions of 5% CO2 and 37° C. for several days. Then, 1 μM or 10 μM of angiotensin II was added. To some wells, CV (10 μM; hereinafter CV was used at this concentration unless otherwise noted) was added as an AIIR blocker 4 hours before adding angiotensin II. Each group contained four wells (n=4). After culturing the cells at 5% CO2 and 37° C. for 5 days, the number of all cells in each of the wells was counted.
The effect of an AIIR blocker was examined in the same manner as Example 1, except for that 10 ng/mL of TGFβ was used in place of angiotensin II.
The effect of an AIIR blocker was examined in the same manner as Example 1, except for that 10 ng/mL of EGF was used in place of angiotensin II.

The subject of experiment [7] is PrSC cells. Kind of experiment: IL-6 secretion by PrSC cells (CLEIA). The note with it: 24 hours. As for the experimental part: PrSC cells prepared in the same manner as Example 1, or F-1 or FT-FB cells prepared as described above were placed in a 6-well dish at 10^5 cells per well, cultured at 5% CO2 and 37° C. for 1 day (24 hours), and stimulated by the addition of TGFβ (1 ng/mL), TNFα (1 ng/mL), EGF (2.5 or 10 ng/mL), or angiotensin II (1 μM or 10 μM) (n=3). CV was added as the AIIR blocker to some wells 4 hours before adding the reagents. The culture media were collected 24 hours after adding the reagents, and the concentrations of IL-6 were determined by the CLEIA method.

The test system of experiment [8] is PrSC cells. Kind of experiment: Olmesartan: proliferation of TNFα-stimulated PrSC cells (Example 6). Conditions: TNFα (1 ng/mL) alone; 5 days; P<0.01. As for the experimental part:
PrSC cells were plated out on a 12-well dish at 20,000 cells per well, and cultured for 5 days in a phenol red-free F12 culture medium supplemented with 0.1% (W/V) BSA containing TNFα (1 ng/mL) alone or in combination with olmesartan (1 μM). Then the number of cells was counted. The group with no additive was used as the control group. Each group contained four wells (n=4).

In another experiment the test system is F-1 cells. Kind of experiment: IL-6 secretion by primary-cultured F-1 cells (CLEIA). The note with it: angiotensin II 1 μM and 10 μM alone; 24 hours. As for the experimental part:
The primary-cultured stromal cells (F-1 cells) derived from a patient with prostatic hypertrophy were prepared as described below.
Tissues obtained from the patient were placed in a 50 mL centrifuge tube containing 20 mL of a medium (RPMI 1640, GIBCO 11835-030) supplemented with 10% (V/V) FBS (filtron) and mg/mL penicillin/streptomycin (GIBCO 15140-122), and allowed to stand at 4° C. for 1 hour or longer. Subsequently, the tissues were placed in a 10-cm dish, and cut into pieces of about 1 mm square. Blood vessels and the like were removed. At that time, to remove excessive blood (if necessary), the tissues were washed by adding 20 mL of the medium and centrifuging the mixture for 5 minutes at 1,000 rpm, followed by aspiration of the supernatant. […]
PrSC cells prepared in the same manner as Example 1, or F-1 or FT-FB cells prepared as described above were placed in a 6-well dish at 10^5 cells per well, cultured at 5% CO2 and 37° C. for 1 day (24 hours), and stimulated by the addition of TGFβ (1 ng/mL), TNFα (1 ng/mL), EGF (2.5 or 10 ng/mL), or angiotensin II (1 μM or 10 μM) (n=3). […] The culture media were collected 24 hours after adding the reagents, and the concentrations of IL-6 were determined by the CLEIA method.

Results on six compounds are retold here after patent publication US20070197562A1, “Remedies for prostatic hypertrophy” (Yokohama TLO Company, Ltd., priority 2004, published 2007).

In the case of `CCCCc1nc(Cl)c(CO)n1Cc1ccc(-c2ccccc2-c2nn[nH]n2)cc1` [losartan], the “cell proliferation, difference from control” value in the experiment with PrSC cells [1] (losartan 10 μM, P<0.05) is reported as “significant difference”. Further, the “cell proliferation vs control” value in the experiment with PrSC cells [1] (losartan 0.1, 1.0 and 10 μM) is given as “dose-dependently suppressed”; with PrSC cells [2] (losartan (10 μM) alone) it was “showed no change”. In addition, the “increase in the number of cells” value in the experiment with PrSC cells [2] (TNFα (1 ng/mL)+losartan (10 μM), P<0.02) is on record as “significantly suppressed”. For the same compound, the “MAPK phosphorylation in PC-3 cells” value in experiment [3] (0.1% BSA-CM from PrSC with angiotensin II (10 μM)+losartan (10 μM), lane 3 vs lane 2, 10 minutes) is given as “suppressed”; in [3] (10% FCS-CM from PrSC with AIIR blocker 10 μM, no angiotensin II, lanes 5 and 6 vs lane 4, 10 minutes), “suppressed”. The “MAPK phosphorylation in PrSC cells” value in experiment [4] (AIIR blocker 10 μM added alone, lanes 8 and 9) is listed as “not caused”; in experiment [4] (TNFα (1 ng/mL) in combination with AIIR blocker 10 μM, lanes 6 and 7, 10 minutes) it was “suppressed”; in [4] (angiotensin II (10 μM) in combination with AIIR blocker 10 μM, lanes 3 and 4, 10 minutes), “suppressed”.
In the case of `CCCc1nc2c(C)cc(-c3nc4ccccc4n3C)cc2n1Cc1ccc(-c2ccccc2C(=O)O)cc1` [telmisartan, 4′-{[4-methyl-6-(1-methyl-2-benzimidazolyl)-2-propyl-1-benzimidazolyl]methyl}-2-biphenylcarboxylic acid], the “increase in the number of cells” value with PrSC cells [5] (EGF (10 ng/mL)+telmisartan (50 μM)) and with PrSC cells [5] (TNFα (1 ng/mL)+telmisartan (50 μM)) was “significantly suppressed” each time.
In the case of “EGF: growth factor used to stimulate cells (NSDSECPLSHDGYCLHDGVCMYIEALDKYACNCVVGYIGERCQYRDLKWWELR; Epidermal growth factor; UniProt P01133 971-1023, looked up)”, the entries for the “number of cells vs control” value with PrSC cells [6] (EGF 10 ng/mL alone) and in the experiment on PrSC cells [5] (EGF (10 ng/mL) alone) were “significant increase” and “significantly increased”, respectively. Besides, the “IL-6 secretion vs control” value with PrSC cells [7] (EGF 2.5 and 10 ng/mL alone) is reported as “dose-dependent increase”.
Turning to TGFβ, the “number of cells, increase vs control” value in the experiment on PrSC cells [6] (TGFβ 10 ng/mL alone) is reported as “more than 2 fold”. Further, the “IL-6 secretion vs control” value in the experiment with PrSC cells [7] (TGFβ (1 ng/mL) alone) is recorded as “significantly promoted”.
TNFα: in the experiment on PrSC cells [7] (TNFα (1 ng/mL) alone), the “IL-6 secretion vs control” value was “significantly promoted”. In addition, the “number of cells vs control” value was “significantly increased” with PrSC cells [8]; “significantly increased” in the experiment on PrSC cells [5] (TNFα (1 ng/mL) alone); “significantly increased” in the experiment on PrSC cells [2] (TNFα (1 ng/mL) alone, P<0.05). The “MAPK phosphorylation in PrSC cells” value in [4] (TNFα (1 ng/mL) alone, lane 5) is listed as “strongly activated”.
In the case of “angiotensin II (DRVYIHPF; Angiotensin-2; UniProt P01019 25-32, looked up) [stimulant added to cells]”, the “numbers of cells vs control” value with PrSC cells [6] (angiotensin II 1 μM or 10 μM alone) is recorded as “concentration-dependent increase”. Further, the “IL-6 secretion vs control” value in the experiment with F-1 cells is on record as “significant increase in a concentration-dependent manner”. Further, the “MAPK phosphorylation in PC-3 cells” value in [3] (0.1% BSA-CM from PrSC with angiotensin II (10 μM) alone, lane 2) was “caused”. In addition, the “MAPK phosphorylation in PrSC cells” value in [4] (angiotensin II (10 μM) alone, lane 2) is recorded as “strongly activated”.
